Measurements taken from article PMC4514675, “Novel Apo E-Derived ABCA1 Agonist Peptide (CS-6253) Promotes Reverse Cholesterol Transport and Induces Formation of preβ-1 HDL In Vitro” (PLoS ONE, 2015).

System: THP-1 foam cells
Test: Cholesterol efflux from THP-1 macrophage-derived foam cells
Type: cell-based, human
Description: Human THP-1 macrophages (American Type Tissue Culture Collection, Camden, NJ) were grown as previously reported. Cells were plated at 2x10^5/ml 24 well-plates in RPMI1640 medium containing 10% fetal bovine serum (FBS), 50 μM β–mercaptoethanol, 50 μg/ml gentamicin, and maintained at 37°C in a humidified atmosphere of 5% CO2. THP-1 cells were differentiated into macrophages by the addition of 200 nM phorbol myristyl acetate (PMA) for 72h. Macrophages were incubated for 72h to become fully differentiated macrophages prior to experiment. […]
Human macrophages THP-1 cells were labelled with ^3H-cholesterol (5 μCi/ml) incorporated into AcLDL (100 μg/ml) in the presence of 1% FBS, 50 μM β-mercaptoethanol and 200 nM PMA, and incubated for 72h. […] Medium and cell associated ^3H-cholesterol were then measured by liquid scintillation counting. Cholesterol efflux was calculated according to the following equation as the percentage of ^3H-cpm medium / (^3H-cpm medium + ^3H-cpm cells) × 100%. […] Bands corresponding to ^3[H]-FC and ^3[H]-CE were located by exposure to iodine vapor, and were scraped off the plate into liquid scintillating vials and assayed for radioactivity.
Fig 2 Effect of CS-6253 treatment on cholesterol efflux. […] Cholesterol efflux from either ABCA1 cells or control cells to apo A-I (closed circles), and CS-6253 (closed triangles) was determined at the indicated time points. […]

Substance: apolipoprotein A-I [apo A-I]
- 3H-FC removed from FC-enriched THP-1 cells (0.96 μM acceptor, 24 h, vs control without acceptor, triplicate wells, mean ± SD): 27.42±1.04%
- proportion of FC mobilized away from the CE cycle (THP-1 foam cells, P<0.05): 29%
